The test system of test [1] is TG1019 (5-oxo-ETE receptor). Kind of test: Migration test using CHO cells stably expressing TG1019. Format: cell-based, human. The conditions noted are these: 5 hours. The method, then: The cells stably expressing TG1019 and the cells not expressing the same obtained in the above section (1) were cultured in a medium (DMEM/F12 medium supplemented with 10% fetal bovine serum [GibcoBRL]), containing 800 μg/ml of hygromycin B. The cells which were 80 to 90% confluent were dissociated by a cell dissociation buffer, and the cells were washed twice by centrifugation (600×g, 5 minutes, 4° C.) with 10 ml of RPMI1640 culture medium supplemented with 0.1% BSA Then, the cells were prepared to a concentration of 1×10^6 cells/ml in the same medium.
Cell migration test was carried out using 2 chambers for migration test (Transwell; 8 μm pore, 24 well, 3422 [Costar]). Chambers were set in a plate, and a solution (600 μl) containing 5-oxo-ETE was added to the lower chamber, and the cell solution (100 μl) was added to the upper chamber, to start the reaction. Migration was carried out at 37° C. for 5 hours in a CO2 incubator.
The chambers were removed, and […] of the solution in the lower chamber was transferred to a tube, and centrifuged at 600×g, 3 minutes, 4° C. 300 μl of the supernatant was removed, and RPMI1640 culture medium supplemented with 0.1% BSA (not containing phenol red) was added, if needed, to adjust a volume of the cell solution to 300 μl. The number of the cells migrated to the lower chamber were counted by flow cytometer.

The target of test [2] is T1, fusion protein of TG1019 protein and Gqα (Homo sapiens, UniProt Q8TDS5, D111G/K206E/T295A).
T1 construct: made in house; host or cells: Sf9 insect cells (baculovirus, pVL1392), membrane fraction
T1 sequence (Q8TDS5 with tags, fused parts or gaps D111G/K206E/T295A): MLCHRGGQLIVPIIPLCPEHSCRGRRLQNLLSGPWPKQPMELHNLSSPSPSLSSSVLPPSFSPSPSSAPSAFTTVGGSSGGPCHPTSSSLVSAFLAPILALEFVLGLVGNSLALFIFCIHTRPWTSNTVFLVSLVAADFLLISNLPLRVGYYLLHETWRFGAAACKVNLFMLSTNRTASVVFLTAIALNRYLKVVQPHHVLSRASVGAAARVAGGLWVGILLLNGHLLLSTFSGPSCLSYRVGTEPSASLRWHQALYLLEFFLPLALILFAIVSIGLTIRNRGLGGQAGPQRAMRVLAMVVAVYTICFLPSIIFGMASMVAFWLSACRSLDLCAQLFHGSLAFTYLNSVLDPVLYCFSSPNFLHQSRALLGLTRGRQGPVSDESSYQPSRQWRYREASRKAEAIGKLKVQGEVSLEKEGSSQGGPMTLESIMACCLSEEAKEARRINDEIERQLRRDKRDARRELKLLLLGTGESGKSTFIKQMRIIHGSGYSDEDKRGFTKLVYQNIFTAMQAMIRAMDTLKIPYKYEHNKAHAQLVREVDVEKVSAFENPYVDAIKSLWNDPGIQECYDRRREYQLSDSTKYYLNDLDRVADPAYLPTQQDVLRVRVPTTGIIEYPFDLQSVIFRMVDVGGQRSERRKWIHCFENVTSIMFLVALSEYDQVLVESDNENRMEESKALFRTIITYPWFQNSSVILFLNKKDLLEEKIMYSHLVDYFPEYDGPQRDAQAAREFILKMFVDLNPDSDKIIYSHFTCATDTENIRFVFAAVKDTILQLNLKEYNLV
In words: [35S]GTPγS binding to membrane fraction containing TG1019-Gqα fusion protein. Format: biochemical. Particulars: membrane fraction with TG1019-Gqα fusion protein; increase small compared to Giα. The source says:
As stated in Example 1, it is concluded that TG1019 protein is a G-protein coupled receptor. Therefore, using a membrane fraction containing fused protein of TG1019 and G-protein, a ligand is identified as follows, according to a method for detecting a ligand-dependent binding with GTPγS (guanosine 5′-O-(3-thiotriphosphate)) [Wenzel-Seifert, et al., Mol. Pharmacom., Vol. 58, pp. 954-966, 2000; Bahia, et al., Biochemistry, Vol. 37, pp. 11555-11562, 1998].
Sf9 cells were inoculated onto a 10 cm Petri dish coated with collagen to about 70% confluence, and added thereto were Virus solution III (100 μl) obtained above and 12 ml of a culture medium, and the mixture was cultured at 27° C. for 4 days. […]
The membrane fraction (450 μl) obtained above (2) was suspended in a reaction buffer (7.54 ml), and added thereto was GDP (10 mM, 10 μl). […] GTPγS (a binding amount to the membrane fraction) on the filter was measured by liquid scintillation counting. From the thus measured [^35S] GTPγS binding amount was subtracted a nonspecific binding amount (a binding amount measured in the presence of 10 μM GTPγS), to obtain a specific binding amount of [^35S ] […]
On the technique in general: Binding of GTPγS marks nucleotide exchange on a G protein.

For another test, the system named is neutrophils. In words: Migration test of neutrophils. In kind it is cell-based. Particulars: purified human neutrophils; 2 hours. The method, then: Neutrophils were purified as follows. Blood was collected (50 ml) from healthy male adult volunteers. Then, 12.5 ml each of the collected blood was poured into a 50 ml tube containing 23 ml physiological saline, and, the total volume was adjusted to 40 ml with physiological saline. To a bottom of the tube, Percoll solution (specific gravity: 1.079±0.004, 10 ml) was gently added, and the mixture was centrifuged at 430×g, for 20 minutes at room temperature, without deceleration or acceleration.
After washing the eosinophils and neutrophils purified in the above sections, the cells were suspended in RPMI1640 supplemented with 0.1% BSA (not containing phenol red) which contains 3 μM Calcein-AM (Dojindo laboratories, fluorescence reagent), so that the cell count became 1×10^6 cells/ml. The suspension was incubated at 37° C. for 30 minutes. The cells were washed twice with the same culture medium, and suspended in the same medium so that the cell count became 1×10^6 cells/ml. […]
(§1) After the reaction, the chambers were removed, and to the lower chamber was added 66 μl of 10× lysis buffer (5% Triton X-100 dissolved in PBS, 10% ethanol). […] 200 μl of the cell lysate was transferred to 96 well black plate (237105, Nunc), and fluorescence intensities were measured using a fluorometer (ARVO™ SX, Wallac) with an excitation wavelength of 485 nm and a fluorescence wavelength of 535 nm.

The test system of a further test is eosinophils. Kind of test: Migration test of eosinophils. In kind it is cell-based. The conditions noted are these: purified human eosinophils; 1.5 hours. The method, then:
Blood was collected (50 ml) from healthy male adult volunteers, and from the collected peripheral blood, eosinophils were purified as follows.
After washing the eosinophils and neutrophils purified in the above sections, the cells were suspended in RPMI1640 supplemented with 0.1% BSA (not containing phenol red) which contains 3 μM Calcein-AM (Dojindo laboratories, fluorescence reagent), so that the cell count became 1×10^6 cells/ml. The suspension was incubated at 37° C. for 30 minutes. The cells were washed twice with the same culture medium, and suspended in the same medium so that the cell count became 1×10^6 cells/ml.
Using these cells, cell migration test was carried out using 2 chambers for migration test (Transwell; 3 μm pore, 24 well, 3422 [Costar]). […]
as §1

The source of these data is patent US7527935B2, “G-protein coupled receptor having eicosanoid as ligand and gene thereof” (Mitsubishi Tanabe Pharma Corporation, priority 2002, dated 2009).

Take `CCCCC/C=C\C/C=C\C/C=C\C=C\C(=O)CCCC(=O)O` [5-oxo-ETE, 5-oxo-6E,8Z,11Z,14Z-eicosatetraenoic acid]: the results for the cell migration result in test [1] (cells not expressing TG1019) and in test [1] (cells stably expressing TG1019) were “did not” and “showed 5-oxo-ETE-induced migration”, respectively. Also, the “specific binding amount of [35S]GTPγS” value in test [2] was “increased”. For the same molecule, the migration of neutrophils result with neutrophils is recorded as “has an ability to make these cells migrate”. In addition, the migration of eosinophils entry in the test on eosinophils is given as “has an ability to make these cells migrate”.
